Where two headings read alike, the source gives them in different places.
Columns and labels:
[1] = Pharmacokinetic study in rats after oral administration of cinobufacini capsule (UPLC-MS/MS of plasma); type: in vivo, rat; conditions: for detection in rat plasma: cinobufacini capsule groups
Method: (§1) Male Sprague–Dawley rats (weighing 200–220 g) of SPF grade were offered by Sippr/BK laboratory Animal, Corp., Ltd. (Shanghai, China) and fed in the Laboratory Animal Center of the Shanghai University of Traditional Chinese Medicine. All the rats were kept under environmentally controlled conditions with constant temperature (22–24°C) and humidity (60–65%). The animal experiment program in the present research was approved by the Animal Committee of the Shanghai University of Traditional Chinese Medicine (PZSHUTCM210618012).
(§2) An Agilent 1290 liquid chromatographic system includes a G4220A quaternary pump, a G1326C column incubator, a G4226A automatic sampler, and a G1330B degasser. The column temperature was set to 35°C. A measure of 5 µL of samples were separated in an Agilent SB-C18 column (2.1 mm ×50 mm, 1.8 μm) and eluted at 0.3 ml/min, followed by gradient elution with water (0.1% V/V formic acid) (A) and acetonitrile (B) (0–1 min, 20%–20% B; 1–3.5 min, 20%–80% B; 4–4.1 min, 80%-20% B; 4.1–6 min, 20% B). The total run time was 6 minutes.
(§3) An Agilent 1290 Infinity series UPLC system was combined with an Agilent 6460 series triple quadrupole mass spectrometer (Agilent Technologies, Santa Clara, CA, United States) to quantify all 13 analytes in an ESI-positive ionization mode. Quantitative analysis was performed in an MRM mode. The mass spectrum conditions were as follows: capillary voltage, 4000V; drying gas (N2), gas flow rate: 10 L/min; sprayer, 30 psi; gas temperature 350°C; The delta EMV (+) 200 V; collision gas (N2); dwell time, 25 ms. Agilent’s MassHunter Workstation software was used for data collection, peak area calculation, and quantitative analysis.
(§4) A measure of 50 µL of the plasma sample was mixed with 10 µL of the internal standard solution (345 ng/ml) in a 1.5-ml centrifuge tube and vortexed for 5 min. The samples were extracted by 500 µL of ethyl acetate for 5 min and centrifuged at 4°C for 10 min (18000 rpm). All the supernatants were collected into another 1.5-ml centrifuge tube, dried under a gentle stream of nitrogen at 37°C, and then added with 50 µL of 80% methanol for resolution. The resolution samples were centrifuged at 4°C for 10 min (18000 rpm), and 5 µL supernatant was extracted and injected for analysis.
(§5) Twenty-four male Sprague–Dawley rats (weigh 200–220 g) were divided into four groups with six rats in each group randomly, including three capsule groups at three different doses and one injection group. In the instructions for cinobufacini capsule and injection, the clinical dosage for adults is 2 g per 70 kg orally and 20 ml per 70 kg intravenously, converting to rat doses of 180 mg/kg and 1.8 ml/kg, respectively.
(§6) In the pre-experiments, we compared cinobufacini capsule of 180 mg/kg (one-time clinical dose) and 900 mg/kg (five times of clinical dose) and Cinobufacini injection of 1.8 ml/kg, but concentrations of some compounds in plasma were too low and difficult to be quantified. […] The experimental rats were led to fast the night and were free to get access to water for 12 h before the pharmacokinetic study. After administration, blood samples (approximately 150 μL) of rats were collected via retro-orbital sinus into heparinized centrifuge tubes at 0.05, 0.083, 0.25, 0.5, 0.75, 1, 2, 4, 6, 8, and 10 h. After centrifugation at 5,000 rpm for 10 min, the plasma was transferred to 1.5-ml polypropylene tubes and stored at −80°C until UPLC-MS/MS analysis.
(§7) GraphPad Prism software (version 8.0.2) was used to draw the mean plasma concentration–time curves of all analytes. The pharmacokinetic parameters were calculated by DAS 3.2.8 software. Meanwhile, the pharmacokinetic data on rats were presented as mean ± standard deviation (SD). Differences of pharmacokinetic parameters between groups were analyzed by the t-test using SPSS software (version 26.0). Differences were considered significant statistically when the p-values were <0.05 and very significant statistically when the p-values were <0.01.

[2] = Pharmacokinetic study in rats after intravenous administration of cinobufacini injection (UPLC-MS/MS of plasma); type: in vivo, rat; conditions: cinobufacini injection group, intravenous
Method: as §1, §2, §3, §4, §5, §6, §7

[3] = Stability of analytes in rat plasma QC samples under storage conditions; type: physicochemical; conditions: n = 6; for Stability during 24 h at 4°C, RE: post-treatment storage in autosampler; for −80°C for 30 days, RE / Three freeze–thaw cycles, RE: rat plasma; for −80°C for 30 days, RE: long-term; for Three freeze–thaw cycles, RE: −80°C to room temperature
Method: The stability of QC samples in six replicates at three concentrations (low, medium, and high levels) was analyzed under different storage conditions: the post-treatment stability was analyzed after storage in an autosampler (4°C) for 24 h. Freeze–thaw stability was investigated after three freeze–thaw cycles (−80°C to room temperature as one cycle). Long-term stability was assessed by analyzing QC samples kept at −80°C for 30 days. The concentrations of the analytes in the plasma samples and the QC samples were calculated by the calibration standard curve prepared each day. The stabilities of analytes were acceptable when the accuracy (RE, %) and precision (RSD, %) of all QC samples in all storage conditions were within ±15% compared to nominal concentrations.

[4] = parameters: method as in Huang et al., 2015; conditions: after administration of Shexiang Baoxin pill; ref Huang et al., 2015; cited from earlier work
[5] = parameters: method as in Wang et al., 2014; conditions: administration dose 1.11 mg/kg; ref Wang et al., 2014; cited from earlier work
[6] = high QC level (249.58–250.28 ng/ml)
[7] = medium QC level (49.92–50.06 ng/ml)

## C[C@]12CC[C@H](O)C[C@H]1CC[C@@H]1[C@@H]2CC[C@]2(C)[C@@H](c3ccc(=O)oc3)C[C@H]3O[C@]132 [RBG, resibufogenin]
[1]
  detection in rat plasma: could not be detected
[2]
  detection in rat plasma: could not be detected
[3]; [6]
  Stability during 24 h at 4°C, RE: −3.3%
  −80°C for 30 days, RE: −2.8%
  Three freeze–thaw cycles, RE: −1.9%
[3]; low QC level (4.99–5.00 ng/ml)
  Stability during 24 h at 4°C, RE: −6.4%
  −80°C for 30 days, RE: −1.3%
  Three freeze–thaw cycles, RE: −0.3%
[3]; [7]
  Stability during 24 h at 4°C, RE: 3.5%
  −80°C for 30 days, RE: 2.3%
  Three freeze–thaw cycles, RE: 3.3%

## CC(=O)O[C@H]1[C@H]2O[C@]23[C@@H]2CC[C@@H]4C[C@@H](O)CC[C@]4(C)[C@H]2CC[C@]3(C)[C@H]1c1ccc(=O)oc1 [CBG, cinobufagin]
[1]
  detection in rat plasma: could not be detected
[2]
  detection in rat plasma: could not be detected
[3]; [6]
  Stability during 24 h at 4°C, RE: 0.6%
  −80°C for 30 days, RE: 2.3%
  Three freeze–thaw cycles, RE: 3.4%
[3]; low QC level (4.99–5.00 ng/ml)
  Stability during 24 h at 4°C, RE: 4.8%
  −80°C for 30 days, RE: 3.7%
  Three freeze–thaw cycles, RE: 4.8%
[3]; [7]
  Stability during 24 h at 4°C, RE: −3.2%
  −80°C for 30 days, RE: −1.0%
  Three freeze–thaw cycles, RE: 0.0%
[4]
  detection in plasma: not detected
[5]
  Cmax: 4.49 ng/mL

## CC(=O)O[C@H]1[C@H]2O[C@]23[C@@H]2CC[C@]4(O)C[C@@H](O)CC[C@]4(C)[C@H]2CC[C@]3(C)[C@H]1c1ccc(=O)oc1 [CBT, cinobufotalin]
[1]
  detection in rat plasma: could not be detected
[2]
  detection in rat plasma: could not be detected
[3]; [6]
  Stability during 24 h at 4°C, RE: 4.8%
  −80°C for 30 days, RE: −8.7%
  Three freeze–thaw cycles, RE: 12.0%
[3]; low QC level (4.99–5.00 ng/ml)
  Stability during 24 h at 4°C, RE: 9.8%
  −80°C for 30 days, RE: −0.3%
  Three freeze–thaw cycles, RE: 4.3%
[3]; [7]
  Stability during 24 h at 4°C, RE: 7.7%
  −80°C for 30 days, RE: 4.1%
  Three freeze–thaw cycles, RE: 13.2%

## CC(=O)O[C@H]1C[C@]2(O)[C@@H]3CC[C@@H]4C[C@@H](O)CC[C@]4(C)[C@H]3CC[C@]2(C)[C@H]1c1ccc(=O)oc1 [BL, bufotalin]
[1]
  detection in rat plasma: could not be detected
[1]; present study
  concentration in plasma: too low to calculate the pharmacokinetics parameters accurately
[2]
  detection in rat plasma: could not be detected
[3]; [6]
  Stability during 24 h at 4°C, RE: 5.7%
  −80°C for 30 days, RE: 6.0%
  Three freeze–thaw cycles, RE: 7.1%
[3]; low QC level (4.99–5.00 ng/ml)
  Stability during 24 h at 4°C, RE: 11.4%
  −80°C for 30 days, RE: 2.3%
  Three freeze–thaw cycles, RE: 3.4%
[3]; [7]
  Stability during 24 h at 4°C, RE: 5.0%
  −80°C for 30 days, RE: 2.1%
  Three freeze–thaw cycles, RE: 3.1%
[4]
  concentration in plasma: lower than 4.4 ng/ml

From PMC9343874, “Comparative Pharmacokinetics of Cinobufacini Capsule and Injection by UPLC-MS/MS” (Frontiers in Pharmacology, 2022)
